Experimental data from PubChem BioAssay AID1919010 (Molecular Pharmacology Branch, DTP, NCI, 2023).

Test system: Hs578T complex spheroid growth, percent test/control
Assay: Anticancer human tumor Hs578T cell line growth inhibition [AhR];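 also: luminescent viability signal as a proxy for spheroid growth; spheroids exposed to agents for one week after three days of growth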
Conditions: for IC50: curve of first compound; for viability, T/C: stronger effect = lower value
How it was run: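 Spheroids combined tumor cells with HUVEC endothelial cells and human MSCs as stroma. AhR antagonists were paired with standard or investigational drugs, each dosed in half-log steps down from near clinical Cmax, or from 10 microM where Cmax was unknown.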

[1] = second compound 0.1 µM, first compound 0.000949 µM
[2] = second compound 0.1 µM, first compound 0.003 µM
[3] = second compound 0.1 µM, first compound 0.00949 µM
[4] = second compound 0.1 µM, first compound 0.03 µM
[5] = second compound 0.1 µM, first compound 0.0949 µM
[6] = second compound 0.1 µM, first compound 0.3 µM
[7] = second compound 0.316 µM, first compound 0.000949 µM
[8] = second compound 0.316 µM, first compound 0.003 µM
[9] = second compound 0.316 µM, first compound 0.00949 µM
[10] = second compound 0.316 µM, first compound 0.03 µM
[11] = second compound 0.316 µM, first compound 0.0949 µM
[12] = second compound 0.316 µM, first compound 0.3 µM
[13] = second compound 1 µM, first compound 0.000949 µM
[14] = second compound 1 µM, first compound 0.003 µM
[15] = second compound 1 µM, first compound 0.00949 µM
[16] = second compound 1 µM, first compound 0.03 µM
[17] = second compound 1 µM, first compound 0.0949 µM
[18] = second compound 1 µM, first compound 0.3 µM
[19] = second compound 3.16 µM, first compound 0.000949 µM
[20] = second compound 3.16 µM, first compound 0.003 µM
[21] = second compound 3.16 µM, first compound 0.00949 µM
[22] = second compound 3.16 µM, first compound 0.03 µM
[23] = second compound 3.16 µM, first compound 0.0949 µM
[24] = second compound 3.16 µM, first compound 0.3 µM
[25] = second compound 10 µM, first compound 0.000949 µM
[26] = second compound 10 µM, first compound 0.003 µM
[27] = second compound 10 µM, first compound 0.00949 µM
[28] = second compound 10 µM, first compound 0.03 µM
[29] = second compound 10 µM, first compound 0.0949 µM
[30] = second compound 10 µM, first compound 0.3 µM

Compound `O=C(C=Cc1cccc(S(=O)(=O)Nc2ccccc2)c1)NO` + Cc1cncc(-c2nc(NCCc3c[nH]c4ccccc34)c3ncn(C(C)C)c3n2)c1 has an IC50 (second compound 0.1 µM) of 2280 nM, an IC50 (second compound 0.316 µM) of 2570 nM and an IC50 (second compound 1 µM) of 2330 nM. The IC50 (second compound 3.16 µM) was 750 nM, the IC50 (second compound 10 µM) was less than 31.6 nM and the viability, T/C (second compound 0.1 µM, first compound 0.0316 µM) was 122%. The viability, T/C (second compound 0.1 µM, first compound 0.1 µM) was 110%, the viability, T/C (second compound 0.1 µM, first compound 0.316 µM) was 106% and the viability, T/C (second compound 0.1 µM, first compound 1 µM) was 75.6%. For the same compound, the viability, T/C (second compound 0.1 µM, first compound 3.16 µM) was 39.8%, the viability, T/C (second compound 0.1 µM, first compound 10 µM) was 2.43% and the viability, T/C (second compound 0.316 µM, first compound 0.0316 µM) was 103%. The viability, T/C (second compound 0.316 µM, first compound 0.1 µM) was 116%, the viability, T/C (second compound 0.316 µM, first compound 0.316 µM) was 93.8% and the viability, T/C (second compound 0.316 µM, first compound 1 µM) was 79.6%. The viability, T/C (second compound 0.316 µM, first compound 3.16 µM) was 44%, the viability, T/C (second compound 0.316 µM, first compound 10 µM) was 2.11% and the viability, T/C (second compound 1 µM, first compound 0.0316 µM) was 113%. The viability, T/C (second compound 1 µM, first compound 0.1 µM) was 101%, the viability, T/C (second compound 1 µM, first compound 0.316 µM) was 98.9% and the viability, T/C (second compound 1 µM, first compound 1 µM) was 77.2%. It also gave a viability, T/C (second compound 1 µM, first compound 3.16 µM) of 39.9%, a viability, T/C (second compound 1 µM, first compound 10 µM) of 1.72% and a viability, T/C (second compound 3.16 µM, first compound 0.0316 µM) of 76.3%. The viability, T/C (second compound 3.16 µM, first compound 0.1 µM) was 63.8%, the viability, T/C (second compound 3.16 µM, first compound 0.316 µM) was 63.1% and the viability, T/C (second compound 3.16 µM, first compound 1 µM) was 46.8%. The viability, T/C (second compound 3.16 µM, first compound 3.16 µM) was 26.2%, the viability, T/C (second compound 3.16 µM, first compound 10 µM) was 0.97% and the viability, T/C (second compound 10 µM, first compound 0.0316 µM) was 7.33%. For the same compound, the viability, T/C (second compound 10 µM, first compound 0.1 µM) was 7.26%, the viability, T/C (second compound 10 µM, first compound 0.316 µM) was 4.94% and the viability, T/C (second compound 10 µM, first compound 1 µM) was 2.69%. For the same compound, the viability, T/C (second compound 10 µM, first compound 3.16 µM) was 1.35% and the viability, T/C (second compound 10 µM, first compound 10 µM) was 0.35%.

`CCc1c2c(nc3ccc(O)cc13)-c1cc3c(c(=O)n1C2)COC(=O)[C@]3(O)CC` + Cc1cncc(-c2nc(NCCc3c[nH]c4ccccc34)c3ncn(C(C)C)c3n2)c1 gave an IC50 (second compound 0.1 µM) of 136 nM, an IC50 (second compound 0.316 µM) of 197 nM and an IC50 (second compound 1 µM) of 115 nM. For the same compound, the IC50 (second compound 3.16 µM) was less than 0.949 nM, the IC50 (second compound 10 µM) was less than 0.949 nM and the viability, T/C [1] was 74.8%. It also gave a viability, T/C [2] of 78.7%, a viability, T/C [3] of 74.4% and a viability, T/C [4] of 64.6%. For the same compound, the viability, T/C [5] was 53.9%, the viability, T/C [6] was 43.1% and the viability, T/C [7] was 83.5%. For the same compound, the viability, T/C [8] was 78.6%, the viability, T/C [9] was 80.2% and the viability, T/C [10] was 70.4%. The viability, T/C [11] was 61.2%, the viability, T/C [12] was 43.7% and the viability, T/C [13] was 77.7%. It also gave a viability, T/C [14] of 67.1%, a viability, T/C [15] of 68.2% and a viability, T/C [16] of 59.7%. The viability, T/C [17] was 52.1%, the viability, T/C [18] was 41.8% and the viability, T/C [19] was 38.9%. The viability, T/C [20] was 42.9%, the viability, T/C [21] was 38.7% and the viability, T/C [22] was 29%. The viability, T/C [23] was 18.2%, the viability, T/C [24] was 13.8% and the viability, T/C [25] was 4.74%. The viability, T/C [26] was 3.51%, the viability, T/C [27] was 4.95% and the viability, T/C [28] was 2.72%. It also gave a viability, T/C [29] of 1.85% and a viability, T/C [30] of 1%.

For `CCc1c2c(nc3ccc(O)cc13)-c1cc3c(c(=O)n1C2)COC(=O)[C@]3(O)CC` + Cc1ccccc1N=Nc1ccc(NC(=O)c2ccnn2C)c(C)c1, the IC50 (second compound 0.1 µM) was 84.6 nM, the IC50 (second compound 0.316 µM) was 130 nM and the IC50 (second compound 1 µM) was 68.7 nM. It also gave an IC50 (second compound 3.16 µM) of 39.1 nM, an IC50 (second compound 10 µM) of 8.73 nM and a viability, T/C [1] of 77.4%. For the same compound, the viability, T/C [2] was 76.4%, the viability, T/C [3] was 73.1% and the viability, T/C [4] was 57.9%. It also gave a viability, T/C [5] of 50.8%, a viability, T/C [6] of 31.5% and a viability, T/C [7] of 91%. The viability, T/C [8] was 78.4%, the viability, T/C [9] was 72.1% and the viability, T/C [10] was 65.4%. The viability, T/C [11] was 53%, the viability, T/C [12] was 41.5% and the viability, T/C [13] was 72.8%. For the same compound, the viability, T/C [14] was 69.4%, the viability, T/C [15] was 69.1% and the viability, T/C [16] was 60.9%. The viability, T/C [17] was 45.7%, the viability, T/C [18] was 36.7% and the viability, T/C [19] was 69.1%. For the same compound, the viability, T/C [20] was 73.8%, the viability, T/C [21] was 62.5% and the viability, T/C [22] was 52%. It also gave a viability, T/C [23] of 41.8%, a viability, T/C [24] of 31.9% and a viability, T/C [25] of 60.4%. For the same compound, the viability, T/C [26] was 51.1%, the viability, T/C [27] was 50.7% and the viability, T/C [28] was 46.3%. It also gave a viability, T/C [29] of 34.7% and a viability, T/C [30] of 30.3%.
